Results reported in patent US20230150951A1, “2,5- OR 2,6-DISUBSTITUTED HYDROQUINONE DERIVATIVES WITH AT LEAST ONE CARBOXY, SULFO OR AMIDO GROUP USEFUL AS MEDICAMENTS” (OM PHARMA SA, priority 2020, published 2023).

These compounds were tested against T1, VEGF-A (Homo sapiens, UniProt P15692) (assay: VEGF-A induced sprouting of HUVEC, spheroid-based cellular angiogenesis assay). Conditions: VEGF-A 25 ng/mL preincubated with compound, 24 h, read-out: VEGF-A1 IC50.
T1 construct: purchased ProQinase GmbH
T1 sequence (P15692 27-191 isoform P15692-4): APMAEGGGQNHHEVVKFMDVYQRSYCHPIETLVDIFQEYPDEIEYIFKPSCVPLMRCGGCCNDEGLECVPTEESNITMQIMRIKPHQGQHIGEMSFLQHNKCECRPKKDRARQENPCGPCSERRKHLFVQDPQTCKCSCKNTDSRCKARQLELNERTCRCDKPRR
Format: cell-based
Summary of the method: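 Compound (final 100 down to 1.56×10^−6 M) was mixed with growth factor (final 25 ng/mL) for 30 min at 37°C, then added onto collagen-embedded 400-cell HUVEC spheroids.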
In the case of `O=C(Nc1ccccc1-c1nnn[nH]1)c1cc(O)c(C(=O)Nc2ccccc2-c2nnn[nH]2)cc1O` [Ic-001aTz2, N1,N4-bis(2-(1H-tetrazol-5-yl)phenyl)-2,5-dihydroxyterephthalamide], the IC50 is reported as 45 µM. In the case of `O=C(O)c1cc(NC(=O)c2cc(O)c(C(=O)O)cc2O)cc(NC(=O)c2cc(O)c(C(=O)O)cc2O)c1` [Ib-010a, 3,5-bis(2,5-dihydroxy-4-carboxybenzoylamino)benzoic acid], the IC50 is reported as 15 µM. Work on `O=C(O)c1cc(O)cc(CSCc2cc(O)cc(C(=O)O)c2O)c1O` [IVc-058a, 3-((2,5-Dihydroxy-3-carboxyphenyl)methylthiomethyl)-2,5-dihydroxybenzoic acid] yielded an IC50 of 83 µM. `CC(=O)N(Cc1cc(O)c(C(=O)O)cc1O)Cc1cc(O)c(C(=O)O)cc1O` [IIIc-057a, N,N-Bis(4-carboxy-2,5-dihydroxyphenylmethyl)acetamide] showed an IC50 of 38 µM. Compound `O=C(O)c1cc(NC(=O)c2cc(O)c(C(=O)Nc3ccc(O)c(C(=O)O)c3)cc2O)ccc1O` [Ic-007a, 5-(4-(3-carboxy-4-hydroxyphenylaminocarbonyl)-2,5-dihydroxybenzamido)-2-hydroxy benzoic acid] has an IC50 of 3.2 µM. In the case of `O=C(O)c1cc(O)c(C(=O)Nc2ccccc2-c2nnn[nH]2)cc1O` [Ia-001a-Tz, 4-(2-(1H-tetrazol-5-yl)phenyl-aminocarbonyl)-2,5-dihydroxybenzoic acid], the IC50 is reported as 17 µM. Compound `O=C(O)c1cc(O)c(C(=O)Nc2ccc(-c3nnn[nH]3)cc2)cc1O` [Ia-003a-Tz, 4-(4-(1H-tetrazol-5-yl)phenyl-aminocarbonyl)-2,5-dihydroxybenzoic acid] has an IC50 of 13 µM. In the case of `O=C(O)Cc1cc(O)c(C(=O)Nc2ccccc2-c2nnn[nH]2)cc1O` [IIIa-001aTz], the IC50 is reported as 12 µM. `O=C(O)c1cc(O)c(C(=O)Nc2ccccc2C(=O)O)cc1O` [Ia-001a, 4-(2-carboxyphenylaminocarbonyl)-2,5-dihydroxybenzoic acid] gave an IC50 of 7.3 µM. `O=C(O)c1cc(O)c(C(=O)Nc2ccccc2S(=O)(=O)O)cc1O` [Ia-001c, 2,5-dihydroxy-4-(2-sulfophenylaminocarbonyl)benzoic acid] was tested, and the IC50 was ≥ 100 µM. With `O=C(O)c1ccccc1CNC(=O)c1cc(O)cc(C(=O)O)c1O` [IIa-053a, 3-(2-Carboxyphenylmethylaminocarbonyl)-2,5-dihydroxybenzoic acid] the IC50 was 37 µM. `O=C(O)c1cc(NC(=O)c2cc(O)c(C(=O)O)cc2O)cc(C(=O)O)c1` [Ia-015a, 5-(4-carboxy-2,5-dihydroxybenzamido)isophthalic acid] was tested, and the IC50 was 19 µM. Compound `COC(=O)c1cc(OC(C)=O)cc(CS(=O)(=O)Cc2cc(OC(C)=O)cc(C(=O)OC)c2OC(C)=O)c1OC(C)=O` [IVc-059a-E2-A4] has an IC50 of 25 µM. For `O=C(O)c1cc(O)c(CN(Cc2cc(O)c(C(=O)O)cc2O)Cc2cc(O)c(C(=O)O)cc2O)cc1O` [IIIc-061a, Tris(4-carboxy-2,5-dihydroxyphenylmethyl)amine], the IC50 was 21 µM. For `O=C(O)c1cc(O)cc(CS(=O)(=O)Cc2cc(O)cc(C(=O)O)c2O)c1O` [IVc-059a, 3-((2,5-Dihydroxy-3-carboxyphenyl)methylsulfonylmethyl)-2,5-dihydroxybenzoic acid], the IC50 was 12 µM. Compound `O=C(O)c1cc(O)ccc1NC(=O)c1cc(O)cc(C(=O)Nc2ccc(O)cc2C(=O)O)c1O` [IIc-009a, 2-(3-(2-carboxy-4-hydroxyphenylaminocarbonyl)-2,5-dihydroxybenzamido)-5-hydroxyl benzoic acid] has an IC50 of 182 µM. For `O=C(O)c1cc(NC(=O)c2cc(O)c(C(=O)Nc3ccccc3-c3nnn[nH]3)cc2O)ccc1O` [Ic-001a-Tz/004a, 5-(4-(2-(1H-tetrazol-5-yl)phenylaminocarbonyl)-2,5-dihydroxybenzamido)-2-hydroxy benzoic acid], the IC50 was 25 µM. In the case of `O=C(O)Cc1cc(O)c(C(=O)Nc2c(C(=O)O)cccc2C(=O)O)cc1O` [IIIa-013a, 2-(4-(carboxymethyl)-2,5-dihydroxybenzamido)isophthalic acid], the IC50 is reported as 43 µM.
